Assay results reported in patent US12024506B2, “Compounds” (Oxford University Innovation Limited, priority 2018, dated 2024).
Entries after “also recorded” stand apart in the source; their conditions may differ.

Tests used:
[1] = target: T1, NRASQ61H interaction with PI3K, CRAF, RALGDS (Homo sapiens, UniProt P01111, Q61H); assay: BRET2 cell assay, NRAS Q61H-effector interaction; format: cell-based; conditions: HEK293T cells, 5, 10 and 20 μM, 20 h
T1 construct: expressed in transfected cells; host or cells: HEK293T
Text: (§1) The BRET ratio corresponds to the light emitted by the GFP2 acceptor constructs (515 nm±30) upon addition of Coelenterazine 400a divided by the light emitted by the RLuc8 donor constructs (410 nm±80). The normalized BRET ratio is the BRET ratio normalized to the DMSO negative and calculated as follows: (BRETcompound/BRETDMSO)×100, where BRETcompound corresponds to the BRET ratio for the compound-treated cells, BRETDMSO to the DMSO-treated cells. Each experiment was repeated at least three times. Statistical analyses were performed using a one-way ANOVA followed by Dunnett's post-tests (*P<0.05, **P<0.01, ***P<0.001, ****P<0.0001). Where error bars are presented, they correspond to mean values±SD of biological repeats (a-c).
(§2) HEK293T cells were transfected 24 hr with plasmids expressing the NRAS Q61H […] and HRAS G12V (B, D) biosensors together with the indicated RBDs of PI3K, CRAF and RALGDS (A, B) or full-length CRAF. […]
(§3) 650,000 HEK293T were seeded in each well of a 6 well plate. […] The final concentrations in the cells were 0, 5, 10 and 20 µM (therefore the intermediate 10× concentrations were 0, 50, 100 and 200 μM. 10 μL of 10× compounds were added in each well of the 96 well plate to 0, 5, 10 and 20 µM final concentrations (with final 0.2% DMSO each). Quadruplicates were performed for each point. Cells were left for an additional 20 hours at 37° C. before the BRET2 signal reading directly after addition of Coelenterazine 400a substrate (10 µM final) to cells (Cayman Chemicals, cat #16157). BRET2 reading was carried out on an Envision instrument (2103 Multilabel Reader, PerkinElmer) with the BRET2 Dual Emission optical module (515 nm±30 and 410 nm±80; PerkinElmer).
(§4) The ability of Example compound 56 to inhibit RAS-effector PPI using the above cell-based RAS-effector BRET2 assay was investigated. […] We determined the effect of compound 56 (labelled Abd-7) on the interaction of KRAS^G12D and with PI3Kα and PI3Kγ, CRAF RAS-binding domain (RBD) and RALGDS RAS-associating domain (RA) compared with the low affinity Reference Compound Abd-2 FIG. 1a). […]

[2] = target: T2, KRASG12D interaction with PI3Kα, PI3Kγ, CRAF RBD, RALGDS RA (Homo sapiens, UniProt P01116, G12D); assay: BRET2 cell assay, KRAS G12D-effector interaction; format: cell-based; conditions: HEK293T cells, 5, 10 and 20 μM, 20 h
T2 construct: expressed in transfected cells; host or cells: HEK293T
Text: as §1
as §3, with “plate. 24 hours later, cells were transfected with an appropriated BRET-based RAS biosensor (i.e. RAS-effector) using Lipofectamine 2000 transfection reagent (Thermo-Fisher).” for “plate.”
as §4

[3] = target: T3, HRASG12V interaction with PI3K, CRAF, RALGDS (Homo sapiens, UniProt P01112, G12V); assay: BRET2 cell assay, HRAS G12V-effector interaction; format: cell-based; conditions: HEK293T cells, 5, 10 and 20 μM, 20 h
T3 construct: expressed in transfected cells; host or cells: HEK293T
Text: as §1, §2, §3, §4

[4] = target: T4, GST-human KRas166 (G12V) GPPNHP (Homo sapiens, UniProt P01116, G12V); assay: KRas small-molecule screening by SPR (Biacore T200); format: binding; conditions: compound 100 uM, 5% DMSO buffer; immobilised GST-KRas166 (G12V) GPPNHP
T4 construct: made in house; host or cells: E. coli C41(DE3)
Summary of the method: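 Biacore T200 screen: compounds at 100 uM final in 5% DMSO buffer (100 mM NaCl, 5 mM MgCl2) over GPPNHP-bound GST-KRas166 G12V captured by anti-GST antibody (10,000–15,000 RU) versus GST-only channel. Expected 1:1 Rmax 63 RU; DMSO solvent correction applied.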

[5] = test system: DLD1 cells (ATCC CCL-221); assay: Cell viability assay 1 (CellTiter-Glo), DLD1 cells; format: cell-based; conditions: Homo sapiens, DLD-1 cells, 48 h, second value of the cell, read-out: Cell Viability DLD-1 (concentration that decreases cell viability by 50%)
Summary of the method: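 DLD1 cells grown in RPMI-1640 with 10% FCS, 2 mM L-glutamine, 37 °C, 5% CO2, plated overnight then exposed to compound (0.5% DMSO) for 48 h. Viability by CellTiter-Glo luminescence; value is concentration reducing viability by 50% from dose-response curves.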

[6] = test system: H358 cells (ATCC CRL-5807); assay: Cell viability assay 1 (CellTiter-Glo), H358 cells; format: cell-based; conditions: Homo sapiens, NCI-H358, 48 h, first value of the cell, read-out: Cell Viability H358 (concentration that decreases cell viability by 50%)
Summary of the method: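 H358 cells were grown in RPMI-1640 with 10% FCS and 2 mM L-glutamine, plated at 5000 cells/well and allowed to adhere overnight. Compound was added in 0.5% DMSO final for 48 h at 37° C. Viability was read by CellTiter-Glo luminescence, with the 50% viability-reducing concentration derived from dose-response curves.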

Effect on BRET signal, NRAS Q61H/effector interactions [1] | Effect on BRET signal, HRAS G12V/effector interactions [3] | SPR Response Units [4] [Response Units] | IC50 [5] [µM] | IC50 [6] [µM] | Structure (SMILES) | Effect on BRET signal, KRAS G12D/effector interactions [2]
does not interfere with the BRET signal | does not interfere with the BRET signal | – | – | – | O=C(NCC1COc2ccccc2O1)c1ccco1 (stereo not drawn) [Abd-2, reference compound] | no effect on the BRET signal; also recorded: not with the Abd-2
– | – | 97 | 5 | 28 | COc1cc(NC(=O)N[C@@H]2CC[C@H](NC(=O)OCc3ccccc3)C2)cc(-c2cccc3c2OC(CNC(=O)C2CCOCC2)CO3)n1 (stereo partly drawn) [Example 100, ((1S,3R)-3-{3-[2-Methoxy-6-(3-{[(tetrahydro-pyran-4-carbonyl)-amino]-methyl}-2,3-dihydro-benzo[1,4]dioxin-5-yl)-pyridin-4-yl]-ureido}-cyclopentyl)-carbamic acid benzyl ester] | –
– | – | 162 | 0.39 | 7.5 | COc1nc(-c2cccc3c2OCCO3)ccc1Nc1ccc(C(=O)NCC2CCNCC2)cc1 [Example 179, 4-[6-(2,3-Dihydro-benzo[1,4]dioxin-5-yl)-2-methoxy-pyridin-3-ylamino]-N-piperidin-4-ylmethyl-benzamide] | –
– | – | 284 | 2 | 13.6 | COc1nc(-c2cccc3c2OCCO3)ccc1Nc1ccc(CNCc2cc[nH]c(=O)c2)cc1 [Example 170, 4-({4-[6-(2,3-Dihydro-benzo[1,4]dioxin-5-yl)-2-methoxy-pyridin-3-ylamino]-benzylamino}-methyl)-1H-pyridin-2-one] | –
– | – | 133 | 8.3 | 20.5 | COc1nc(-c2cccc3c2OCCO3)ccc1Nc1cccc(C(=O)NCC2CNC(=O)C2)c1 (stereo not drawn) [Example 166, 3-[6-(2,3-Dihydro-benzo[1,4]dioxin-5-yl)-2-methoxy-pyridin-3-ylamino]-N-(5-oxo-pyrrolidin-3-ylmethyl)-benzamide] | –
– | – | 552 | 1.4 | 44.9 | COc1nc(-c2cccc3c2OCCO3)ccc1Nc1cccc(CNCC2CCN(C)CC2)c1 [Example 189, [6-(2,3-Dihydro-benzo[1,4]dioxin-5-yl)-2-methoxy-pyridin-3-yl]-(3-{[(1-methyl-piperidin-4-ylmethyl)-amino]-methyl}-phenyl)-amine] | –
– | – | 85 | 7 | 17 | COc1cccc(-c2cccc3c2OC(CN(Cc2ccc(OCCN(C)C)cc2)CC2CCOCC2)CO3)n1 (stereo not drawn) [Example 32, [2-(4-{[[8-(6-Methoxy-pyridin-2-yl)-2,3-dihydro-benzo[1,4]dioxin-2-ylmethyl]-(tetrahydro-pyran-4-ylmethyl)-amino]-methyl}-phenoxy)-ethyl]-dimethyl-amine] | –
– | – | 150 | 1.36 | 14.7 | c1cc2c(c(-c3ccc(Nc4ccc(CNCC5COCCN5)cc4)cc3)c1)OCCO2 (stereo not drawn) [Example 151, 4-(2,3-dihydrobenzo[b][1,4]dioxin-5-yl)-N-(4-(((morpholin-3-ylmethyl)amino)methyl)phenyl)aniline] | –
